# From ChEMBL document CHEMBL1124522, “Synthesis and antitumor activity of 5-deaza-5,6,7,8-tetrahydrofolic acid and its N10-substituted analogues” (J Med Chem, 1989)
# Several values for one entry are separate records, joined by “and”; a condition that tells them apart may be missing. Equal entries are not always repeated.
# T1: Folylpolyglutamate synthase, mitochondrial (Mus musculus) (UniProt P48760)
# T1 sequence (whole entry): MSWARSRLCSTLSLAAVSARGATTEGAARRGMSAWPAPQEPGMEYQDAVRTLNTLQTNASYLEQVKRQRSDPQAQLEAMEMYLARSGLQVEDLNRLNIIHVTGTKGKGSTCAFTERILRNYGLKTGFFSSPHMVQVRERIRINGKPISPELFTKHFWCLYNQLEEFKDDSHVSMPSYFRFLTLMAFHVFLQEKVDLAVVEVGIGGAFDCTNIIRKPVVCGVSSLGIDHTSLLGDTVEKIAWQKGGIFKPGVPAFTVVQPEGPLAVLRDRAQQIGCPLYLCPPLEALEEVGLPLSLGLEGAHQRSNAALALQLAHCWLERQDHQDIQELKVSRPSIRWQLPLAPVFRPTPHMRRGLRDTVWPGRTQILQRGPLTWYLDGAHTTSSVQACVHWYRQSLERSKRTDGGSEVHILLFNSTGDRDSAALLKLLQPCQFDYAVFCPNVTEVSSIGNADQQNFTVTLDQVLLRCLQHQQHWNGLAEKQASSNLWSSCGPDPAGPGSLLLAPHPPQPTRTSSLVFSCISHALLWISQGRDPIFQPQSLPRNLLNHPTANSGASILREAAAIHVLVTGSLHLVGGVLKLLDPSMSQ
# B1: Folylpolyglutamate synthase, mitochondrial (Mus musculus), P48760 (protein)
# chain: T1 sequence (whole entry)
# What was measured:
# [1] = test system: CCRF-CEM; assay: Compound was tested for its antitumor activity against human lymphoblastic leukemic cells(CCRF-CEM) in vitro; format: functional, cell-based
# [2] = biological target: T1, Folylpolyglutamate synthase, mitochondrial (Mus musculus); assay: Apparent catalytic rate constants (Km) owas determined from mouse liver Folyl-polyglutamate synthase
# [3] = biological target: T1, Folylpolyglutamate synthase, mitochondrial (Mus musculus); assay: First order catalytic rate constants (k) was determined from mouse liver Folyl-polyglutamate synthase
# [4] = biological target: T1, Folylpolyglutamate synthase, mitochondrial (Mus musculus); assay: First order catalytic rate folyl-poly-glutamate synthetase
# [5] = biological target: T1, Folylpolyglutamate synthase, mitochondrial (Mus musculus); assay: Apparent catalytic rate folyl-poly-glutamate synthetase
# [6] = biological target: T1, Folylpolyglutamate synthase, mitochondrial (Mus musculus); assay: Apparent catalytic rate constants (Km) was determined from mouse liver Folyl-polyglutamate synthase
# [7] = In vivo antitumor activity (toxic/total) at dose 25 mg/kg in C3H mice with transplantable murine solid tumor C3H mammary adenocarcinoma, doses administered intraperitoneally on days 1,3,5,7 and 9;Compound was tested on 10 mice.; format: functional, Mus musculus; details: route intraperitoneal
# [8] = In vivo anti tumor activity (toxic/total) at dose 100 mg/kg in C3H mice with transplantable murine solid tumor 6C3HED lymphosarcoma, doses administered intraperitoneally on days 1,3,5,7 and 9;Compound was tested on 9 mice.; format: functional, Mus musculus; details: route intraperitoneal
# [9] = Percent inhibition against C3H mammary adenocarcinoma at dose 50 mg/kg in C3H mice;Compound was toxic.; format: ADME, organism-based; parameters: dose 50 mg/kg; details: mouse, in vivo
# [10] = In vivo antitumor activity (toxic/total) at dose 12.5 mg/kg in C3H mice with transplantable murine solid tumor C3H mammary adenocarcinoma; Compound was tested on 10 mice.; format: functional, Mus musculus
# [11] = In vivo anti tumor activity (toxic/total) at dose 12.5 mg/kg in C3H mice with transplantable murine solid tumor 6C3HED lymphosarcoma, doses administered intraperitoneally on days 1,3,5,7 and 9;Compound was tested on 10 mice.; format: functional, Mus musculus; details: route intraperitoneal
# [12] = Percent inhibition against C3H mammary adenocarcinoma at dose 50 mg/kg administered ip on days 1,3,5,7 and 9 in C3H mice; format: functional; details: Mus musculus, route intraperitoneal
# [13] = In vivo antitumor activity (toxic/total) at dose 50 mg/kg in C3H mice with transplantable murine solid tumor C3H mammary adenocarcinoma; Compound was tested on 10 mice.; format: functional, Mus musculus
# [14] = In vivo antitumor activity (toxic/total) at dose 50 mg/kg in C3H mice with transplantable murine solid tumor C3H mammary adenocarcinoma, doses administered intraperitoneally on days 1,3,5,7 and 9;Compound was tested on 10 mice.; format: functional, Mus musculus; details: route intraperitoneal
# [15] = test system: 6C3HED; assay: Percent inhibition against 6C3HED lymphosarcoma at dose 6 mg/kg in C3H mice; format: functional; details: Mus musculus
# [16] = Percent inhibition against C3H mammary adenocarcinoma at dose 25 mg/kg in C3H mice;Compound was toxic.; format: ADME, organism-based; parameters: dose 25 mg/kg; details: mouse, in vivo
# [17] = In vivo anti tumor activity (toxic/total) at dose 25 mg/kg in C3H mice with transplantable murine solid tumor 6C3HED lymphosarcoma, doses administered intraperitoneally on days 1,3,5,7 and 9;Compound was tested on 10 mice.; format: functional, Mus musculus; details: route intraperitoneal
# [18] = Percent inhibition against C3H mammary adenocarcinoma at dose 6.25 mg/kg in C3H mice; format: functional; details: Mus musculus
# [19] = In vivo antitumor activity (toxic/total) at dose 25 mg/kg in C3H mice with transplantable murine solid tumor C3H mammary adenocarcinoma; Compound was tested on 10 mice.; format: functional, Mus musculus
# [20] = In vivo antitumor avctivity (Toxic/total) at dose 100 mg/kg in C3H mice with transplantable murine solid tumor 6C3HED lymphosarcoma; Compound was tested on 10 mice.; format: functional, Mus musculus
# [21] = In vivo antitumor avctivity (Toxic/total) at dose 6 mg/kg in C3H mice with transplantable murine solid tumor 6C3HED lymphosarcoma; Compound was tested on 10 mice.; format: functional, Mus musculus
# [22] = test system: 6C3HED; assay: Percent inhibition against 6C3HED lymphosarcoma at dose 200 mg/kg in C3H mice; format: functional; details: Mus musculus
# [23] = In vivo antitumor activity (toxic/total) at dose 6.25 mg/kg in C3H mice with transplantable murine solid tumor C3H mammary adenocarcinoma; Compound was tested on 10 mice.; format: functional, Mus musculus
# [24] = test system: 6C3HED; assay: Percent inhibition against 6C3HED lymphosarcoma at dose 100 mg/kg in C3H mice; format: functional, Mus musculus
# [25] = In vivo antitumor activity (toxic/total) at dose 12.5 mg/kg in C3H mice with transplantable murine solid tumor C3H mammary adenocarcinoma, doses administered intraperitoneally on days 1,3,5,7 and 9;Compound was tested on 10 mice.; format: functional, Mus musculus; details: route intraperitoneal
# [26] = In vivo anti tumor activity (toxic/total) at dose 200 mg/kg in C3H mice with transplantable murine solid tumor 6C3HED lymphosarcoma, doses administered intraperitoneally on days 1,3,5,7 and 9;Compound was tested on 10 mice.; format: functional, Mus musculus; details: route intraperitoneal
# [27] = test system: 6C3HED; assay: Percent inhibition against 6C3HED lymphosarcoma at dose 50 mg/kg in C3H mice; format: functional, Mus musculus
# [28] = Percent inhibition against C3H mammary adenocarcinoma at dose 12.5 mg/kg administered ip on days 1,3,5,7 and 9 in C3H mice; format: functional; details: Mus musculus, route intraperitoneal
# [29] = test system: 6C3HED; assay: Percent inhibition against 6C3HED lymphosarcoma at dose 12.5 mg/kg in C3H mice; format: functional, Mus musculus
# [30] = test system: 6C3HED; assay: Percent inhibition against 6C3HED lymphosarcoma at dose 25 mg/kg in C3H mice; format: functional, Mus musculus
# [31] = Percent inhibition against C3H mammary adenocarcinoma at dose 6.25 mg/kg administered ip on days 1,3,5,7 and 9 in C3H mice; format: functional; details: Mus musculus, route intraperitoneal
# [32] = Percent inhibition against C3H mammary adenocarcinoma at dose 25 mg/kg administered ip on days 1,3,5,7 and 9 in C3H mice; format: functional; details: Mus musculus, route intraperitoneal
# [33] = In vivo antitumor activity (toxic/total) at dose 6.25 mg/kg in C3H mice with transplantable murine solid tumor C3H mammary adenocarcinoma, doses administered intraperitoneally on days 1,3,5,7 and 9;Compound was tested on 10 mice.; format: functional, Mus musculus; details: route intraperitoneal
# [34] = In vivo antitumor activity (toxic/total) at dose 100 mg/kg in C3H mice with transplantable murine solid tumor C3H mammary adenocarcinoma, doses administered intraperitoneally on days 1,3,5,7 and 9;Compound was tested on 10 mice.; format: functional, Mus musculus; details: route intraperitoneal
# [35] = In vivo anti tumor activity (toxic/total) at dose 50 mg/kg in C3H mice with transplantable murine solid tumor 6C3HED lymphosarcoma, doses administered intraperitoneally on days 1,3,5,7 and 9;Compound was tested on 10 mice.; format: functional, Mus musculus; details: route intraperitoneal
# [36] = In vivo antitumor avctivity (Toxic/total) at dose 50 mg/kg in C3H mice with transplantable murine solid tumor 6C3HED lymphosarcoma; Compound was tested on 10 mice.; format: functional, Mus musculus
# [37] = Percent inhibition against C3H mammary adenocarcinoma at dose 100 mg/kg administered ip on days 1,3,5,7 and 9 in C3H mice; format: functional; details: Mus musculus, route intraperitoneal
# [38] = In vivo antitumor avctivity (Toxic/total) at dose 12.5 mg/kg in C3H mice with transplantable murine solid tumor 6C3HED lymphosarcoma; Compound was tested on 10 mice.; format: functional, Mus musculus
# [39] = In vivo antitumor avctivity (Toxic/total) at dose 25 mg/kg in C3H mice with transplantable murine solid tumor 6C3HED lymphosarcoma; Compound was tested on 10 mice.; format: functional, Mus musculus
# [40] = substrate: Nc1nc(=O)c2nc(CNc3ccc(C(=O)N[C@@H](CCC(=O)O)C(=O)O)cc3)cnc2[nH]1; assay: Catalytic rate folyl-poly-glutamate synthetase
# [41] = substrate: Nc1nc(N)c2nc(CNc3ccc(C(=O)N[C@@H](CCC(=O)O)C(=O)O)cc3)cnc2n1; assay: (§1) Catalytic rate constants (Vmax) was determined from mouse liver Folyl-polyglutamate synthase
# [42] = substrate: Nc1nc2c(c(=O)[nH]1)C[C@@H](CCc1ccc(C(=O)N[C@@H](CCC(=O)O)C(=O)O)cc1)CN2; assay: as §1
# [43] = substrate: Nc1nc(O)c2c(n1)NCC(CNc1ccc(C(=O)N[C@@H](CCC(=O)O)C(=O)O)cc1)C2; assay: as §1
molecule,measurement,setting,value
Nc1nc(O)c2c(n1)NCC(CNc1ccc(C(=O)N[C@@H](CCC(=O)O)C(=O)O)cc1)C2 (stereo in doubt; 7a-A),IC50,[1]; ccrf-cem,6 nM
Nc1nc2c(c(=O)[nH]1)C[C@@H](CCc1ccc(C(=O)N[C@@H](CCC(=O)O)C(=O)O)cc1)CN2 (stereo in doubt; form 3) [LOMETREXOL],IC50,[1]; ccrf-cem,20 nM
Nc1nc(N)c2nc(CNc3ccc(C(=O)N[C@@H](CCC(=O)O)C(=O)O)cc3)cnc2n1,Km app,[2],21 µM
same,k,[3],10.1
CC(=O)N(CC1CNc2nc(N)nc(O)c2C1)c1ccc(C(=O)N[C@@H](CCC(=O)O)C(=O)O)cc1 (stereo partly drawn),IC50,"[1]; Homo sapiens, CCRF-CEM",600 nM
Nc1nc(=O)c2nc(CNc3ccc(C(=O)N[C@@H](CCC(=O)O)C(=O)O)cc3)cnc2[nH]1,k,[4],1
same,Km app,[5],140 µM
Nc1nc(O)c2c(n1)NCC(CNc1ccc(C(=O)N[C@@H](CCC(=O)O)C(=O)O)cc1)C2 (stereo in doubt; 7a) [listing 1 of 2 here],Km app,[6],1.06 µM
same,k,[3],170
Nc1nc2c(c(=O)[nH]1)C[C@@H](CCc1ccc(C(=O)N[C@@H](CCC(=O)O)C(=O)O)cc1)CN2 (stereo in doubt; form 3),Km app,[2],7.3 µM
same,k,[3],32
Nc1nc2c(c(=O)[nH]1)C[C@@H](CCc1ccc(C(=O)N[C@@H](CCC(=O)O)C(=O)O)cc1)CN2 (stereo in doubt; form 2) [LOMETREXOL],IC50,[1]; ccrf-cem,5 nM
Nc1nc2c(c(=O)[nH]1)C[C@@H](CCc1ccc(C(=O)N[C@@H](CCC(=O)O)C(=O)O)cc1)CN2 (stereo in doubt; form 1) [LOMETREXOL],IC50,[1]; ccrf-cem,8 nM
CN(CC1CNc2nc(N)nc(O)c2C1)c1ccc(C(=O)N[C@@H](CCC(=O)O)C(=O)O)cc1 (stereo partly drawn),IC50,"[1]; Homo sapiens, CCRF-CEM",40 nM
Nc1nc(O)c2c(n1)NCC(CNc1ccc(C(=O)N[C@@H](CCC(=O)O)C(=O)O)cc1)C2 (stereo in doubt; 7a) [listing 2 of 2 here],tox/total,[7],0
same,tox/total,[8],0
same,Inhibition,[9],Toxic
same,tox/total,[10],10
same,tox/total,[11],0
same,inhibition in vivo at 50 mg/kg,[12],81%
same,tox/total,[13],10
same,tox/total,[14],0
same,inhibition in vivo at 6 mg/kg,[15],77%
same,Inhibition,[16],Toxic
same,tox/total,[17],0
same,inhibition in vivo at 6.25 mg/kg,[18],96%
same,tox/total,[19],10
same,tox/total,[20],9
same,tox/total,[21],0
same,inhibition in vivo at 200 mg/kg,[22],98%
same,tox/total,[23],3
same,Inhibition,[24]; 100 mg/kg,93%
same,inhibition in vivo at 100 mg/kg,"[24]; Mus musculus, 6C3HED",100%
same,tox/total,[25],0
same,tox/total,[26],3
same,Inhibition,[27],100% and 74%
same,IC50,"[1]; Homo sapiens, CCRF-CEM",10 nM
same,inhibition in vivo at 12.5 mg/kg,[28],61%
same,Inhibition,[29],100% and 34%
same,Inhibition,[30],100% and 51%
same,inhibition in vivo at 6.25 mg/kg,[31],50%
same,inhibition in vivo at 25 mg/kg,[32],64%
same,tox/total,[33],0
same,tox/total,[34],0
same,tox/total,[35],0
same,tox/total,[36],6
same,inhibition in vivo at 100 mg/kg,[37],94%
same,tox/total,[38],1
same,tox/total,[39],3
B1,Vmax,[40],1
same,Vmax,[41],1.59
same,Vmax,[42],1.26
same,Vmax,[43],1.3
